Measurements published in US20060148885A1, “Medicinal composition” (Kyowa Hakko Kogyo Co., Ltd., priority 2003, published 2006).
Where a name gives a salt, the structure may show the parent alone.

System: rats with bladder hypertrophy
Assay: Inhibitory activity on detrusor overactivity: cystometry in rats with partial urethral obstruction
Format: in vivo, SD rats
Conditions: p.o., Compound (Ia) 0.01 mg/kg, tamsulosin 0.03 mg/kg; for amplitude of premicturition contractions (relative value, before administration = 100) / frequency of premicturition contractions (relative value, before administration = 100) / amplitude of micturition contractions (relative value, before administration = 100): average ± standard error; for amplitude of premicturition contractions (relative value, before administration = 100) / frequency of premicturition contractions (relative value, before administration = 100): n = 9-10; for amplitude of micturition contractions (relative value, before administration = 100): index of voiding function; for effect on micturition contractions (voiding function), in words / effect on premicturition contractions (amplitude and frequency), in words: summary of Test Example
Procedure: The experiment was carried out according to the method by Malmgren, et al. [J. Urol., Vol. 142, pp. 1134-1138 (1989)]. Female SD rats of 8 to 9 weeks of age (supplied by Charles River Japan) were used in the test. Five to seven animals of these rats were housed in metal cages and given commercially available chow and water ad libtum, in an animal room maintained at room temperature from 19° C. to 25° C. and humidity from 30% to 70% under illumination for 12 hours (7:00 a.m.-7:00 p.m.) per day. The rats were subjected to operation of partial urethral obstruction. Each animal was anesthetized by intraperitoneal administration of 50 mg/kg pentobarbital sodium (Tokyo Kasei), and the midline incision of the skin and muscle was made in the lower abdomen. A polyethylene tube (PE-20, Becton Dickinson) was inserted into urethra from the urethral orifice to the bladder neck. After the proximal urethra was separated from connective tissues and ligated using double suture, the polyethylene tube was removed to induce partial urethral obstruction. The incised part was sutured with a surgical silk thread. An antibiotic ampicillin (Sigma) was intramusclarly injected (150 mg/kg, once a day, for 3 days). Six weeks after the operation of the partial urethral obstruction, the rats with bladder hypertrophy were subjected to intravesical implantation of catheter. Under anesthesia with pentobarbital sodium, the bladder was exposed by an abdominal midline incision. A polyethylene tube (PE-50, Becton Dickinson), one end of which was blunted not to damage the bladder tissue, was filled with a physiological saline (Otsuka Pharmaceutical Factory) and inserted into the bladder via the bladder apex. The intravesical catheter was fixed with a surgical silk suture. The other end of the catheter was tunneled subcutaneously, drawn out from the dorsal neck, plugged and then fixed to the skin with a suture. Four to seven days after the surgery for implantation of intravesical catheter, a cystometry test was performed. The rats were housed in a Bollman cage (Natsume Seisakusho) and a three-way stopcock was connected to the intravesical catheter, one end of the stopcock was connected to a pressure transducer (Nihon Kohden) and the other end was connected to a 50-mL syringe (Terumo) set in an infusion pump (KD Scientific) for physiological saline infusion. The intravesical pressure was measured with a polygraph system (RMP-6008, Nihon Kohden) via a pressure transducer and a strain pressure amplifier (AP-621G, Nihon Kohden), and recorded on a thermal array recorder (RTA-1200, Nihon Kohden). Sixty to 90 minutes after the completion of the preparation for the measurement, a room temperature physiological saline was continuously infused into the urinary bladder for 30 minutes at a flow rate of 10 mL/h to confirm the occurrence of micturition contractions and premicturition contractions (detrusor overactivity). Thirty minutes after the cessation of the first saline infusion, the saline was again infused intravesically for 30 minutes, and this period is for determination of the data before drug administration. Compound (Ia) was suspended in a 0.5 w/v (weight/volume) % methyl cellulose solution at a concentration of 1 mg/ml. The suspension was further diluted with a 0.5 w/v % methyl cellulose solution to prepare solution for administration [solution for Compound (Ia) administration] at a concentration of 0.01 mg/ml. The solution was orally administered to the rats at a volume of 1 ml/kg. Tamsulosin hydrochloride was dissolved in a 0.5 w/v % methyl cellulose solution at a concentration of 0.03 mg/ml (solution for tamsulosin administration), and the solution was orally administered to the rats at a volume of 1 ml/kg. For investigating the effect of the combined administration, Compound (Ia) solution and the tamsulosin solution were simultaneously and orally administered to the rats, both at a volume of 1 ml/kg each. […]

| SMILES | amplitude of premicturition contractions (relative value, before administration = 100) (After 1 hour) | frequency of premicturition contractions (relative value, before administration = 100) (After 1 hour) | amplitude of micturition contractions (relative value, before administration = 100) (After 1 hour) | amplitude of premicturition contractions (relative value, before administration = 100) (After 3 hours) | frequency of premicturition contractions (relative value, before administration = 100) (After 3 hours) | amplitude of micturition contractions (relative value, before administration = 100) (After 3 hours) | amplitude of premicturition contractions (relative value, before administration = 100) (After 5 hours) | frequency of premicturition contractions (relative value, before administration = 100) (After 5 hours) | amplitude of micturition contractions (relative value, before administration = 100) (After 5 hours) | effect on micturition contractions (voiding function), in words | effect on premicturition contractions (amplitude and frequency), in words |
| --- | --- | --- | --- | --- | --- | --- | --- | --- | --- | --- | --- |
| C[C@](O)(C(=O)Nc1cccc2c1C(=O)c1sccc1CS2(=O)=O)C(F)(F)F [Compound (Ia), (S)-(+)-3,3,3-trifluoro-2-hydroxy-2-methyl-N-(5,5,10-trioxo-4,10-dihydrothieno[3,2-c][1]benzothiepin-9-yl)propanamide] | 62.3 ± 7.7 % | 52.3 ± 7.3 % | 109.5 ± 2.2% | 62.8 ± 7.6 % | 46.2 ± 8.1 % | 105.5 ± 3.8% | 65.6 ± 7.5 % | 42.4 ± 6.0 % | 96.7 ± 2.4% | did not affect micturition contractions | inhibited premicturition contractions |
| CCOc1ccccc1OCCN[C@H](C)Cc1ccc(OC)c(S(N)(=O)=O)c1 [Tamsulosin, Tamsulosin hydrochloride] | 62.0 ± 5.2 % | 57.8 ± 7.5 % | 108.5 ± 6.4% | 75.2 ± 5.5 % | 73.2 ± 5.3 % | 108.1 ± 6.0% | 88.3 ± 7.2 % | 78.4 ± 7.0% | 104.7 ± 6.4% | did not affect micturition contractions | inhibited premicturition contractions |
